Test results as given in patent US20070037882A1, “Remedy for cerebral neurodegenerative diseases using ppar agonist” (Astellas Pharma Inc., priority 2003, published 2007).
“Also recorded” adds a separate entry of the source.

Key:
[1] = tested on: rat cerebral infarction model; test: Rat cerebral infarction model (middle cerebral artery-occluded reperfusion, Koizumi method); assay type: in vivo; settings: for Lesions with cerebral infarction (area in % of damaged site in the 6 sections), Cortex / Lesions with cerebral infarction (area in % of damaged site in the 6 sections), Subcortex / Lesions with cerebral infarction (area in % of damaged site in the 6 sections), Total: 24 h after reperfusion; for action to reduce cerebral infarction (in words): rat cerebral infarction model
SH-SY5Y cells [2] = test: Thapsigargin-induced cellular death model, viable cells by MTT assay; assay type: cell-based, human; settings: for suppression of thapsigargin-induced cellular death (in words): SH-SY5Y; for MTT assay A490: thapsigargin + (100 nM), 24 h
Method: SH-SY5Y cells were plated on a 96-well plate (70,000 cell/well in 100 μl DMEM low glucose 10% fetal bovine serum) for overnight culturing, from which the culture medium was removed with an aspirator. Then, DMEM without serum was added at 50 μl/well. […] 2 hours later, DMEM without serum containing 600 nM thapsigargin was added at 20 μl/well. (Thapsigargin to a final 100 nM concentration) (For a control, DMEM without serum alone was added.) 24 hours later, the viable cell count was calculated from the absorbance at 490 nm, using Celltiter 96 Aqueous one solution cell proliferaion assay kit (Promega).

SH-SY5Y cells [3] = test: Thapsigargin-induced cellular death model, dead cells by LDH assay; assay type: cell-based, human; settings: thapsigargin + (100 nM), 24 h, concentration not given
Method: SH-SY5Y cells were plated on a 96-well plate (70,000 cell/well in 100 μl DMEM low glucose 10% fetal bovine serum) for overnight culturing, from which the culture medium was removed with an aspirator. Then, DMEM without serum was added at 50 μl/well. […] 2 hours later, DMEM without serum containing 600 nM thapsigargin was added at 20 μl/well. (Thapsigargin to a final 100 nM concentration) (For a control, DMEM without serum alone was added.) 24 hours later, the absorbance at 490 nm was assayed with a cytotoxicity detection kit (Roche) to assay the LDH activity. […] An apparent correlation between the result of the viable cell count as determined by MTT assay in Example 1 and the LDH activity is shown. The above results clearly indicate that the PPARδ agonists are effective on the suppression of the thapsigargin-induced cellular death.

[4] = tested on: GAL4-human PPARδ fusion protein; test: GAL4 reporter gene assay in CV-1 cells, human PPARδ; assay type: cell-based; settings: third 'Human PPAR-•' line (taken as δ), pG5luc reporter
[5] = tested on: GAL4-human PPARγ fusion protein; test: GAL4 reporter gene assay in CV-1 cells, human PPARγ; assay type: cell-based; settings: second 'Human PPAR-•' line (taken as γ), pG5luc reporter
[6] = tested on: GAL4-murine PPARδ fusion protein; settings: third 'Murine PPAR-•' line (taken as δ); CV-1 cells, pG5luc reporter
[7] = tested on: GAL4-murine PPARγ fusion protein; test: GAL4 reporter gene assay in CV-1 cells, murine PPARγ; assay type: cell-based; settings: second 'Murine PPAR-•' line (taken as γ), pG5luc reporter
[8] = tested on: GAL4-murine PPARα fusion protein; test: GAL4 reporter gene assay in CV-1 cells, murine PPARα; assay type: cell-based; settings: first 'Murine PPAR-•' line (taken as α), pG5luc reporter
[9] = tested on: GAL4-human PPARα fusion protein; test: GAL4 reporter gene assay in CV-1 cells, human PPARα; assay type: cell-based; settings: first 'Human PPAR-•' line (taken as α), pG5luc reporter
PPARγ = molecular target: T1, PPARγ (Homo sapiens, UniProt P37231); settings: FEBS Letters 473 (2000) 333-336; read-out: affinity to PPARγ (Ki); cited from earlier work
T1 sequence (P37231 1-505): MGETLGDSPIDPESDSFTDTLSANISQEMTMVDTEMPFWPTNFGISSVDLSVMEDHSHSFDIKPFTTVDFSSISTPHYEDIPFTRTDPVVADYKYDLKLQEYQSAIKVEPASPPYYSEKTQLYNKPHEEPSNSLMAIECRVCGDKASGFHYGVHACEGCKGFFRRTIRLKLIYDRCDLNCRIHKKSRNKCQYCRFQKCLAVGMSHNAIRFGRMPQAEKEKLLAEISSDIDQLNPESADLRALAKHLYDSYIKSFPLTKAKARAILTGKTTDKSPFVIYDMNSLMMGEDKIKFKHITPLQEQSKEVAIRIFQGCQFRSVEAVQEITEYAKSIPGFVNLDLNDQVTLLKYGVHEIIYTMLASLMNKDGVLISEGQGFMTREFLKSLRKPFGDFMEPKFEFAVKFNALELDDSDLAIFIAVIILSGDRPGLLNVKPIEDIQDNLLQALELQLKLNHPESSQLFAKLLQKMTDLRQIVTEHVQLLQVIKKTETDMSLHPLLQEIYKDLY

PPARδ = molecular target: T2, PPARδ (Homo sapiens, UniProt Q03181); settings: FEBS Letters 473 (2000) 333-336; read-out: affinity to PPARδ (Ki); cited from earlier work
T2 sequence (Q03181 1-441): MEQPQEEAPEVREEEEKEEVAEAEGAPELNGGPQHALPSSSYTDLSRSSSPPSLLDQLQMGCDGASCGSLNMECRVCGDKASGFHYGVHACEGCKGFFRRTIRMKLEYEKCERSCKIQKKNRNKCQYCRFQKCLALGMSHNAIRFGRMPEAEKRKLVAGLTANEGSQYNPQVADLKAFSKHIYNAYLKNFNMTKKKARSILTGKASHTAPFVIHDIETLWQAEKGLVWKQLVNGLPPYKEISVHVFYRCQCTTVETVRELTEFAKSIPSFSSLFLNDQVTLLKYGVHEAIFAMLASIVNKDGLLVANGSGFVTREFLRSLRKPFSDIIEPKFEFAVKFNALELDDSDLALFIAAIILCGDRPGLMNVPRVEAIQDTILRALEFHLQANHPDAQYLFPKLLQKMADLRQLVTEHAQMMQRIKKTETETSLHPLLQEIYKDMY

[10] = 2nd '+' line (presumably 0.1 μM)
[11] = 4th '+' line (presumably 10 μM)
[12] = 5th '+' line (presumably 100 μM)

SMILES | Lesions with cerebral infarction (area in % of damaged site in the 6 sections), Cortex ([1]; 24 μg/head/day i.c.v.) [%] | Lesions with cerebral infarction (area in % of damaged site in the 6 sections), Subcortex ([1]; 24 μg/head/day i.c.v.) [%] | Lesions with cerebral infarction (area in % of damaged site in the 6 sections), Total ([1]; 24 μg/head/day i.c.v.) [%] | Lesions with cerebral infarction (area in % of damaged site in the 6 sections), Cortex ([1]; 240 μg/head/day i.c.v.) [%] | Lesions with cerebral infarction (area in % of damaged site in the 6 sections), Subcortex ([1]; 240 μg/head/day i.c.v.) [%] | Lesions with cerebral infarction (area in % of damaged site in the 6 sections), Total ([1]; 240 μg/head/day i.c.v.) [%] | action to reduce cerebral infarction (in words) [1] | suppression of thapsigargin-induced cellular death (in words) (SH-SY5Y cells [2]) | MTT assay A490 (SH-SY5Y cells [2]; compound 0.1 μM) | MTT assay A490 (SH-SY5Y cells [2]; compound 1 μM) | MTT assay A490 (SH-SY5Y cells [2]; compound 10 μM) | MTT assay A490 (SH-SY5Y cells [2]; compound 100 μM) | LDH release A490 (SH-SY5Y cells [3]; [10]) | LDH release A490 (SH-SY5Y cells [3]; 3rd '+' line (presumably 1 μM)) | LDH release A490 (SH-SY5Y cells [3]; [11]) | LDH release A490 (SH-SY5Y cells [3]; [12]) | also measured
Cc1cc(SCc2sc(-c3ccc(C(F)(F)F)cc3)nc2C)ccc1OCC(=O)O [GW501516] | 9.39 ± 1.56 | 9.35 ± 0.65 | 18.74 ± 2.00 | 7.26 ± 1.67 | 7.88 ± 0.79 | 15.14 ± 2.20 | potent actions to reduce cerebral infarction; also recorded: far greater action of reducing cerebral damages | suppressed cellular death induced by thapsigargin (TG) in a concentration-dependent manner | 0.2978 ± 0.0096 | 0.3150 ± 0.0135 | 0.3478 ± 0.0110 | 0.2950 ± 0.0033 | 0.6225 ± 0.0229 | 0.5750 ± 0.0212 | 0.3325 ± 0.0259 | 0.6675 ± 0.0328 | cellular toxicity (in words) (SH-SY5Y cells [2]; concentration of 100 μM, thapsigargin model): cellular toxicity of GW501516 can be observed
CCCc1c(OCCCOc2ccc(OCC(=O)O)cc2)ccc(C(C)=O)c1O [L-165041, 4-[3-[2-propyl-3-hydroxy-4-acetyl]phenoxy]propyloxyphenoxy acetic acid] | 12.70 ± 0.63 | 9.98 ± 0.30 | 22.68 ± 0.83 | 10.22 ± 1.29 | 9.19 ± 0.85 | 19.40 ± 1.98 | potent actions to reduce cerebral infarction | suppressed cellular death induced by thapsigargin (TG) in a concentration-dependent manner | 0.2176 ± 0.0036 | 0.2158 ± 0.0034 | 0.2436 ± 0.0015 | 0.4405 ± 0.0065 | 0.6758 ± 0.0183 | 0.6295 ± 0.0139 | 0.6029 ± 0.0135 | 0.2987 ± 0.0128 | Reduction ratio of cerebral cortex damage ([1]; i.c.v. 24 •g/head/day): 9%; Reduction ratio of cerebral cortex damage ([1]; i.c.v. 240 •g/head/day): 27%; Concentration for action exertion [4]: 0.1 M; Concentration for action exertion [5]: 10 M; Concentration for action exertion [6]: 0.1 M; Concentration for action exertion [7]: 10 M; Concentration for action exertion [8]: >100 M; Concentration for action exertion [9]: 10 M; Ki (PPARγ): 0.73 µM; Ki (PPARδ): 0.006 µM
